Test results reported in the NIST ThermoML archive (doi:10.1021/je400679k).

Test: xn = mol fraction of the nth substance listed
Details: 101 kPa, Liquid, Vibrating tube method

CNCCCN [N-methyl-1,3-diaminopropane] + CCN(CC)CCO
mass density [kg/m3]
Details	x1 = 0.0999	x1 = 0.2	x1 = 0.3001	x1 = 0.3997	x1 = 0.5	x1 = 0.5998	x1 = 0.7001	x1 = 0.8	x1 = 0.8996	x1 = 1
283.15 K	892.458	890.44	888.023	885.377	882.338	878.902	874.969	870.601	866.062	860.459
293.15 K	883.574	881.665	879.317	876.712	873.685	870.252	866.283	861.885	857.283	851.605
303.15 K	874.574	872.785	870.463	867.945	864.94	861.519	857.522	853.099	848.439	842.69
313.15 K	865.456	863.792	861.601	859.082	856.105	852.691	848.689	844.237	839.53	833.715
323.15 K	856.219	854.692	852.583	850.12	847.171	–	–	–	–	–
